According to US20160166565A1, “TREATMENT OF MULTIPLE SCLEROSIS WITH COMBINATION OF LAQUINIMOD AND FLUPIRTINE” (Teva Pharmaceutical Industries, Ltd., priority 2013, published 2016):
Where two headings read alike, the source gives them in different places.

System: MOG-induced EAE Mice
Test: MOG-induced EAE in mice, laquinimod alone or in combination with flupirtine
Format: in vivo, mice (C57BL/6)
Details: oral gavage qd, Day 1 to 30; for inhibition at 30 mg/kg: Mus musculus, vs vehicle
[1] = 0.5% MC + Flupirtin 30 mg/kg/day

CCOC(=O)Nc1ccc(NCc2ccc(F)cc2)nc1N [Flupirtin, ethyl {2-amino-6-[(4-fluorobenzyl)amino]pyridin-3-yl}carbamate]
Duration [1]: 17.0 days
GMS value (group mean score) [1]: 1.9
INC (Incidence) [1]: 15/15
MMS value (mean maximal score) [1]: 3.1
MORT (Mortality) [1]: 0/15
Onset [1]: 13.3 days
inhibition at 30 mg/kg (0.5% MC + Flupirtin 30 mg/kg/day, read-out: INH 1 (percent inhibition according to incidence)): 0%
inhibition at 30 mg/kg (0.5% MC + Flupirtin 30 mg/kg/day, read-out: INH 2 (percent inhibition according to MMS)): 11.4%
inhibition at 30 mg/kg (0.5% MC + Flupirtin 30 mg/kg/day, read-out: INH 3 (percent inhibition / activity according to GMS)): 17.4%

CCN(C(=O)c1c(O)c2c(Cl)cccc2n(C)c1=O)c1ccccc1 [LAQ, 5-chloro-N-ethyl-4-hydroxy-1-methyl-2-oxo-N-phenyl-1,2-dihydroquinoline-3-carboxamide]
Duration (LAQ 1 mg/kg/day + 0.5% MC): 16.0 days
GMS value (group mean score) (LAQ 1 mg/kg/day + 0.5% MC): 1.9
INC (Incidence) (LAQ 1 mg/kg/day + 0.5% MC): 15/15
MMS value (mean maximal score) (LAQ 1 mg/kg/day + 0.5% MC): 3.4
MORT (Mortality) (LAQ 1 mg/kg/day + 0.5% MC): 0/15
Onset (LAQ 1 mg/kg/day + 0.5% MC): 14.8 days
Duration (LAQ 5 mg/kg/day + 0.5% MC): 14.7 days
GMS value (group mean score) (LAQ 5 mg/kg/day + 0.5% MC): 1.6
INC (Incidence) (LAQ 5 mg/kg/day + 0.5% MC): 14/15
MMS value (mean maximal score) (LAQ 5 mg/kg/day + 0.5% MC): 2.9
MORT (Mortality) (LAQ 5 mg/kg/day + 0.5% MC): 0/15
Onset (LAQ 5 mg/kg/day + 0.5% MC): 15.0 days
